{
  "source": "patent US20240122923A1",
  "about": "“METHODS OF TREATING HIDRADENITIS SUPPURATIVA” (AbbVie Inc., priority 2022, published 2024)",
  "assay_type_in_all_cases": "in vivo",
  "key": {"[1]": {"system": "adult human subjects with moderate to severe Hidradenitis Suppurativa (HS)", "test": "Phase 2 randomized, double-blind, placebo-controlled study of upadacitinib, efficacy incl. post-hoc analysis through week 40", "details": "for subjects achieving HiSCR at Week 12, n (%): upadacitinib 30 mg QD oral, N=47; for subjects achieving Pain NRS30 at Week 12 among subjects with Baseline NRS ≥ 3, n (%): upadacitinib 30 mg QD, N=33", "description": "(§1) This study was a Phase 2, multicenter, randomized, double-blind, parallel-group, placebo-controlled study to evaluate the efficacy and safety of upadacitinib in adult human subjects with moderate to severe Hidradenitis Suppurativa (HS).\n(§2) The duration of the study was 57 weeks, including an approximately 35-day screening period followed by a 48-week double-blinded treatment period and a 30-day follow-up visit after the last dose of study drug. Subjects were randomized in a 2:1 ratio to 1 of the 2 arms as shown below: • Upadacitinib 30 mg once daily (QD) (N=40): Daily oral doses of upadacitinib 30 mg from the Baseline visit through Period 1 and Period 2. • Placebo (N=20): Placebo for upadacitinib from the Baseline visit up to the Week 12 visit (Period 1). At Week 12, subjects were switched to blinded upadacitinib 15 mg QD through Period 2.\nThe primary objective of this study was to assess the efficacy and safety of upadacitinib 30 mg QD in adult subjects with moderate to severe HS. The primary efficacy objective was assessed based on the achievement of HiSCR after 12 weeks treatment.\nThe primary endpoint was Hidradenitis Suppurativa Clinical Response (HiSCR) at Week 12, where HiSCR is defined as at least 50% reduction in the total abscess and inflammatory nodule (AN) count with no increase in abscess count and no increase in draining fistula count relative to Baseline.\nThe secondary endpoint was Pain Numerical Rating Scale (NRS30) at Week 12: the achievement of at least 30% reduction and at least 1 unit reduction from Baseline in NRS30 in Patient's Global Assessment of Skin Pain (PGA Skin Pain) at Week 12, among subjects with Baseline NRS≥3.\nThe following additional efficacy endpoints were evaluated: • 1. Experience of flare, defined as an increase in AN count of at least 25% with a minimum increase of 2 relative to Baseline • 2. Change from Baseline in Dermatology Life Quality Index (DLQI) • 3. Change from baseline in Hidradenitis Suppurativa Symptom Assessment (HSSA) • 4. Change from baseline in HS-related swelling, assessed based on the HSSA • 5. Change from baseline in HS-related odor, assessed based on the HSSA • 6. Change from baseline in HS-related worst drainage, assessed based on the HSSA\nFor the primary and secondary endpoints, comparisons of upadacitinib vs. placebo were made with 3 different analysis strategies, as summarized in Table 1 below:\nFor the additional endpoints, comparisons were made for upadacitinib vs. historical reference value of placebo, and upadacitinib vs. in-trial placebo subjects.\nFor categorical variables, the primary approach to handle missing data was Non-Responder Imputation [NRI] incorporating Multiple Imputation [MI]. For continuous variables, missing data was handled by Mixed-effect Model Repeat Measurement (MMRM). Missing data for long-term efficacy in Period 2 were handled based on the observed case (OC).\nA post-hoc efficacy assessment through week 40 was performed in the study of Example 1. The analysis included the proportion of patients achieving ≥75% and ≥90% reduction from baseline in AN count with no increase in abscess or draining fistula count (HiSCR 75 and HiSCR 90, respectively) and the proportion of patients achieving ≥55% reduction in International HS Severity Score System endpoint (IHS4-55), which dynamically assesses inflammatory nodules, abscesses, and draining tunnels."}, "[2]": {"system": "adult human subjects with moderate to severe Hidradenitis Suppurativa (HS)", "test": "Phase 2 study of upadacitinib in HS, safety (TEAEs, discontinuation due to adverse event)", "description": "as §1, §2\nTreatment-emergent adverse events (TEAEs), adverse events of interests (AESIs), and potentially clinically important (PCI) laboratory changes were monitored in Period 1."}, "[3]": {"system": "adult human subjects with moderate to severe Hidradenitis Suppurativa (HS)", "test": "Phase 2 randomized, double-blind, placebo-controlled study of upadacitinib, efficacy incl. post-hoc analysis through week 40", "details": "UPA 30 mg QD; N=47; flare = AN count increase ≥25% with minimum increase of 2"}, "[4]": {"details": "UPA 30 mg, analysis vs historical reference value of PBO"}, "[5]": {"details": "UPA 30 mg, analysis vs in-trial PBO"}, "[6]": {"details": "Week 12, UPA 30 mg, Observed Case, n=39"}, "[7]": {"details": "Week 40, PBO/UPA 15 mg (switched at week 12), NRI-C, n=19"}, "[8]": {"details": "Week 40, UPA 30 mg/UPA 30 mg, NRI-C, n=47"}, "[9]": {"details": "Week 40, UPA 30 mg/UPA 30 mg, Observed Case, n=29"}},
  "note": "“And” between values parts separate entries of the source, which are not always exact repeats. Equal values may be shown once.",
  "data": [
    {"compound": "CC[C@@H]1CN(C(=O)NCC(F)(F)F)C[C@@H]1c1cnc2cnc3[nH]ccc3n12", "note": "[upadacitinib]", "values": [
      {"measurement": "HiSCR at Week 12, % (N), stratum TNF-Naïve", "setting": "[1]; UPA 30 mg, NRI-C, N=35, listed as UPA", "value": "37.1% (N = 35)"},
      {"measurement": "Change in DLQI at Week 12, LS Mean (SE)", "setting": "[1]; [4]", "value": "−2.4 (1.05)"},
      {"measurement": "Change in HSSA odor at Week 12, LS Mean (SE)", "setting": "[1]; [4]", "value": -1.2},
      {"measurement": "Change in HSSA swelling at Week 12, LS Mean (SE)", "setting": "[1]; [4]", "value": -0.931},
      {"measurement": "Change in HSSA total symptom at Week 12, LS Mean (SE)", "setting": "[1]; [4]", "value": -0.969},
      {"measurement": "Change in HSSA worst drainage at Week 12, LS Mean (SE)", "setting": "[1]; [4]", "value": "−1.131 (0.31)"},
      {"measurement": "Change in DLQI at Week 12, LS Mean (SE)", "setting": "[1]; [5]", "value": -2.4},
      {"measurement": "Change in HSSA odor at Week 12, LS Mean (SE)", "setting": "[1]; [5]", "value": "−1.171 (0.36)"},
      {"measurement": "Change in HSSA swelling at Week 12, LS Mean (SE)", "setting": "[1]; [5]", "value": "−0.922 (0.34)"},
      {"measurement": "Change in HSSA total symptom at Week 12, LS Mean (SE)", "setting": "[1]; [5]", "value": "−1.034 (0.27)"},
      {"measurement": "Change in HSSA worst drainage at Week 12, LS Mean (SE)", "setting": "[1]; [5]", "value": "−1.259 (0.30)"},
      {"measurement": "Patients achieving HiSCR 90, n (%)", "setting": "[1]; Week 12, UPA 30 mg, NRI-C, n=47, listed as UPA", "value": "8.5% and 4 (8.5)^‡ %"},
      {"measurement": "Patients achieving HiSCR 75, n (%)", "setting": "[1]; [6]", "value": "10 (25.6) %"},
      {"measurement": "Patients achieving HiSCR 90, n (%)", "setting": "[1]; [6]", "value": "4 (10.3) %"},
      {"measurement": "Patients achieving HiSCR, n (%)", "setting": "[1]; [6]", "value": "18 (46.2) %"},
      {"measurement": "Patients achieving IHS4-55, n (%)", "setting": "[1]; [6]", "value": "19 (48.7) %"},
      {"measurement": "Patients achieving HiSCR 75, n (%)", "setting": "[1]; [7]", "value": "7 (36.8) %"},
      {"measurement": "Patients achieving HiSCR 90, n (%)", "setting": "[1]; [7]", "value": "4 (21.1) %"},
      {"measurement": "Patients achieving HiSCR, n (%)", "setting": "[1]; [7]", "value": "10 (52.6) %"},
      {"measurement": "Patients achieving IHS4-55, n (%)", "setting": "[1]; [7]", "value": "12 (63.2) %"},
      {"measurement": "Patients achieving IHS4-55, n (%)", "setting": "[1]; Week 40, PBO/UPA 15 mg (switched at week 12), Observed Case, n=14", "value": 85.7, "unit": "%"},
      {"measurement": "Patients achieving IHS4-55, n (%)", "setting": "[1]; Week 40, PBO/UPA 15 mg (switched at week 12), Observed Case, n=14, listed as UPA", "value": "12 (85.7) %"},
      {"measurement": "Patients achieving HiSCR 75, n (%)", "setting": "[1]; [8]", "value": "18 (38.3) %"},
      {"measurement": "Patients achieving HiSCR 90, n (%)", "setting": "[1]; [8]", "value": "9 (19.1) %"},
      {"measurement": "Patients achieving HiSCR, n (%)", "setting": "[1]; [8]", "value": "22 (46.8) %"},
      {"measurement": "Patients achieving IHS4-55, n (%)", "setting": "[1]; [8]", "value": "21 (44.7) %"},
      {"measurement": "Patients achieving HiSCR 75, n (%)", "setting": "[1]; [9]", "value": "18 (62.1) %"},
      {"measurement": "Patients achieving IHS4-55, n (%)", "setting": "[1]; [9]", "value": 72.4, "unit": "%"},
      {"measurement": "Patients achieving IHS4-55, n (%)", "setting": "[1]; Week 40, UPA 30 mg/UPA 30 mg, Observed Case, n=29, listed as UPA", "value": "21 (72.4) %"},
      {"measurement": "subjects achieving HiSCR at Week 12, n (%)", "setting": "[1]; NRI-C", "value": 38.3, "unit": "%"},
      {"measurement": "subjects achieving HiSCR at Week 12, n (%)", "setting": "[1]; NRI-C, listed as Upadacitinib", "value": "18 (38.3) %"},
      {"measurement": "subjects achieving Pain NRS30 at Week 12 among subjects with Baseline NRS ≥ 3, n (%)", "setting": "[1]; NRI-C", "value": 36.4, "unit": "%"},
      {"measurement": "subjects achieving Pain NRS30 at Week 12 among subjects with Baseline NRS ≥ 3, n (%)", "setting": "[1]; NRI-C, listed as UPA", "value": "12 (36.4%)"},
      {"measurement": "subjects achieving Pain NRS30 at Week 12 among subjects with Baseline NRS ≥ 3, n (%)", "setting": "[1]; NRI-C, listed as Upadacitinib", "value": "12 (36.4) %"},
      {"measurement": "most frequently reported TEAE (≥5%)", "setting": "[2]; Period 1, upadacitinib 30 mg QD group", "value": "headache, dizziness, and urinary tract infection"},
      {"measurement": "Discontinued Study Drug during Period 2 (primary reason): Adverse event, n (%)", "setting": "[2]; Placebo/UPA 15 mg, N=19", "value": 0},
      {"measurement": "Discontinued Study Drug during Period 1: Adverse Event, n (%)", "setting": "[2]; UPA 30 mg, N=47", "value": "(2.1) %"},
      {"measurement": "Discontinued Study Drug during Period 2 (primary reason): Adverse event, n (%)", "setting": "[2]; UPA 30 mg, N=47", "value": 0},
      {"measurement": "Flare during Period 1, n (%)", "setting": "[3]", "value": "6 (12.8%)"}
    ]}
  ]
}
